Here are results for 34 molecules from patent US8232269B2, “Amide compounds useful in therapy” (Pfizer Inc., priority 2008, dated 2012).

pKi: −log10 of the molar value. Bounds are passed on as bounds.

The assay addresses T1, Progesterone Receptor (PR) (Homo sapiens, UniProt P06401).
T1 construct: endogenous in cells; host or cells: T47D human breast mammary carcinoma cells
T1 sequence (P06401 1-933): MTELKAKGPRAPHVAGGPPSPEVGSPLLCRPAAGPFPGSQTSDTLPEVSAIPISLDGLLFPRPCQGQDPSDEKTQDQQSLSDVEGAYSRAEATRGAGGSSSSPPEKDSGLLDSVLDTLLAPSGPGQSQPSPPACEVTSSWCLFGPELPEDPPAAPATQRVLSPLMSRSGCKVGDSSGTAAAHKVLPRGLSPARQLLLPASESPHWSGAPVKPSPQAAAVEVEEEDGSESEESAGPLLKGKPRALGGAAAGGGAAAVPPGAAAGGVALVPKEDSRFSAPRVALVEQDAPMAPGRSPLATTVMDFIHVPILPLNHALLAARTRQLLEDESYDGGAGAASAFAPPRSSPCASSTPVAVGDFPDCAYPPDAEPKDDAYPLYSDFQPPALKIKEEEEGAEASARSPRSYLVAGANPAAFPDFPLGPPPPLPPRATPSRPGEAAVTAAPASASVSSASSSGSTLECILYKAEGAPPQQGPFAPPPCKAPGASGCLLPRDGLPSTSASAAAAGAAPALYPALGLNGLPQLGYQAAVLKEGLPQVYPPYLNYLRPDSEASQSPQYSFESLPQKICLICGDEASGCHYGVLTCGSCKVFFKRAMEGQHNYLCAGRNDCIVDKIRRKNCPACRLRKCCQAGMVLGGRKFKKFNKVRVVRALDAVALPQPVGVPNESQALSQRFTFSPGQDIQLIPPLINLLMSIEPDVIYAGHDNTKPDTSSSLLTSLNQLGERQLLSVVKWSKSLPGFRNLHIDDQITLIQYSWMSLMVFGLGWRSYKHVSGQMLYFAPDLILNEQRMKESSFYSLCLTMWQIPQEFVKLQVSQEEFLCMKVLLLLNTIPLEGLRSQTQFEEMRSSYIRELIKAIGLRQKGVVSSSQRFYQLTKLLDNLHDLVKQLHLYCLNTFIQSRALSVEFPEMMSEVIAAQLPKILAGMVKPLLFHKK
Put plainly: In vitro functional assay for progesterone receptor (PR) antagonists: inhibition of progesterone-induced alkaline phosphatase expression in T47D cells. In kind it is cell-based. To be noted: antagonist format, 5 nM progesterone, Ki calculated from IC50 with the Cheng-Prusoff equation. The method, boiled down: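 Antagonist format: T47D cells (8750/well, phenol red-free DMEM + 5% CS-FCS) given half-log compound dilutions plus 5 nM progesterone (final), incubated overnight (≥16 h) at 37 °C. Alkaline phosphatase read by CSPD chemiluminescence after freeze-thaw lysis; 0.1 μM RU-486 final defines minimum.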
In general, pKi refers to the Ki on a negative log10 scale, so that one unit is a factor of ten. As for `CC(=O)CNC(=O)c1c(C2CC2)c(-c2ccc(C#N)cc2)nn1C(C)C` [Example 61, 3-(4-Cyanophenyl)-4-cyclopropyl-1-isopropyl-N-(2-oxopropyl)-1H-pyrazole-5-carboxamide], the pKi was 8.08.

Turning to `Cc1cc(-c2nn(C(C)C)c(C(=O)NCC3CC3)c2C)ccc1C#N` [Example 62, 3-(4-Cyano-3-methylphenyl)-N-(cyclopropylmethyl)-1-isopropyl-4-methyl-1H-pyrazole-5-carboxamide], the negative logarithm of the Ki (pKi) is 8.51.

On to `Cc1cc(-c2nn(C(C)C)c(C(=O)NC[C@H](C)O)c2C)ccc1C#N` [Example 63, 3-(4-Cyano-3-methylphenyl)-N-[(2S)-2-hydroxypropyl]-1-isopropyl-4-methyl-1H-pyrazole-5-carboxamide], for which the negative-log Ki (pKi) is 8.20.

Take `Cc1cc(-c2nn(C(C)C)c(C(=O)NC[C@@H](C)O)c2C)ccc1C#N` [Example 64, 3-(4-Cyano-3-methylphenyl)-N-[(2R)-2-hydroxypropyl]-1-isopropyl-4-methyl-1H-pyrazole-5-carboxamide]: the pKi was 7.96.

Regarding `CCNC(=O)c1c(C)c(-c2ccc(C#N)c(C)c2)nn1C(C)C` [Example 65, 3-(4-Cyano-3-methylphenyl)-N-ethyl-1-isopropyl-4-methyl-1H-pyrazole-5-carboxamide], the pKi was 8.45.

On to `Cc1cc(-c2nn(C(C)C)c(C(=O)NC(C)C)c2C)ccc1C#N` [Example 66, 3-(4-Cyano-3-methylphenyl)-N,1-diisopropyl-4-methyl-1H-pyrazole-5-carboxamide], for which the pKi was 8.45.

As to `Cc1cc(-c2nn(C(C)C)c(C(=O)NC3CC3)c2C)ccc1C#N` [Example 67, 3-(4-Cyano-3-methylphenyl)-N-cyclopropyl-1-isopropyl-4-methyl-1H-pyrazole-5-carboxamide], the negative logarithm of the Ki (pKi) is 8.36.

Consider `Cc1cc(-c2nn(C(C)C)c(C(=O)NCC(C)(C)O)c2C)ccc1C#N` [Example 68, 3-(4-Cyano-3-methylphenyl)-N-(2-hydroxy-2-methylpropyl)-1-isopropyl-4-methyl-1H-pyrazole-5-carboxamide], for which the pKi is 8.20.

As for `Cc1c(-c2ccc(C#N)cc2)nn(C2CCC2)c1C(=O)NCC1CC1` [Example 69, 3-(4-Cyanophenyl)-1-cyclobutyl-N-(cyclopropylmethyl)-4-methyl-1H-pyrazole-5-carboxamide], the pKi was 8.47.

Consider `CNC(=O)c1c(C)c(-c2ccc(C#N)cc2)nn1C1CCC1` [Example 70, 3-(4-Cyanophenyl)-1-cyclobutyl-N,4-dimethyl-1H-pyrazole-5-carboxamide], for which the pKi is 8.26.

Regarding `Cc1c(-c2ccc(C#N)cc2)nn(C2CCC2)c1C(=O)NC1CC1` [Example 71, 3-(4-Cyanophenyl)-1-cyclobutyl-N-cyclopropyl-4-methyl-1H-pyrazole-5-carboxamide], the pKi was 8.08.

For `Cc1c(-c2ccc(C#N)cc2)nn(C2CCC2)c1C(=O)NC[C@H](C)O` [Example 72, 3-(4-Cyanophenyl)-1-cyclobutyl-N-[(2S)-2-hydroxypropyl]-4-methyl-1H-pyrazole-5-carboxamide], the pKi was 7.88.

Take `Cc1c(-c2ccc(C#N)cc2)nn(C2CCC2)c1C(=O)NC[C@@H](C)O` [Example 73, 3-(4-Cyanophenyl)-1-cyclobutyl-N-[(2R)-2-hydroxypropyl]-4-methyl-1H-pyrazole-5-carboxamide]: the negative-log Ki (pKi) was 7.54.

Consider `Cc1c(-c2ccc(C#N)cc2)nn(C2CCC2)c1C(=O)NCC(C)(C)O` [Example 74, 3-(4-Cyanophenyl)-1-cyclobutyl-N-(2-hydroxy-2-methylpropyl)-4-methyl-1H-pyrazole-5-carboxamide], for which the pKi is 7.73.

Turning to `CNC(=O)c1c(C)c(-c2ccc(C#N)cc2)nn1C1CC1` [Example 81, 3-(4-Cyanophenyl)-1-cyclopropyl-N,4-dimethyl-1H-pyrazole-5-carboxamide], the pKi is 7.21.

On to `Cc1c(-c2ccc(C#N)cc2)nn(C2CC2)c1C(=O)NCC1CC1` [Example 82, 3-(4-Cyanophenyl)-1-cyclopropyl-N-(cyclopropylmethyl)-4-methyl-1H-pyrazole-5-carboxamide], for which the pKi was 7.15.

In the case of `CCNC(=O)c1c(C)c(-c2ccc(C#N)cc2)nn1C1CC1` [Example 83, 3-(4-Cyanophenyl)-1-cyclopropyl-N-ethyl-4-methyl-1H-pyrazole-5-carboxamide], the pKi was 7.02.

With `Cc1c(-c2ccc(C#N)cc2)nn(C2CC2)c1C(=O)NC1CC1` [Example 84, 3-(4-Cyanophenyl)-N,1-dicyclopropyl-4-methyl-1H-pyrazole-5-carboxamide], the pKi was 6.90.

For `Cc1c(-c2ccc(C#N)cc2)nn(C2CC2)c1C(=O)NC(C)C` [Example 85, 3-(4-Cyanophenyl)-1-cyclopropyl-N-isopropyl-4-methyl-1H-pyrazole-5-carboxamide], the negative-log Ki (pKi) was 6.86.

Regarding `Cc1c(-c2ccc(C#N)cc2)nn(C2CC2)c1C(=O)NC[C@H](C)O` [Example 86, 3-(4-Cyanophenyl)-1-cyclopropyl-N-[(2S)-2-hydroxypropyl]-4-methyl-1H-pyrazole-5-carboxamide], the pKi is less than 6.86.

Take `Cc1c(-c2ccc(C#N)cc2)nn(C2CC2)c1C(=O)NC[C@@H](C)O` [Example 87, 3-(4-Cyanophenyl)-1-cyclopropyl-N-[(2R)-2-hydroxypropyl]-4-methyl-1H-pyrazole-5-carboxamide]: the pKi is less than 6.72.

With `CCNC(=O)c1c(C#N)c(-c2ccc(C#N)cc2)nn1C(C)C` [Example 89, 4-Cyano-3-(4-cyanophenyl)-N-ethyl-1-isopropyl-1H-pyrazole-5-carboxamide], the pKi is 8.11.

For `CC(C)NC(=O)c1c(C#N)c(-c2ccc(C#N)cc2)nn1C(C)C` [Example 91, 4-Cyano-3-(4-cyanophenyl)-N,1-diisopropyl-1H-pyrazole-5-carboxamide], the pKi is 8.19.

In the case of `CNC(=O)c1c(C#N)c(-c2ccc(C#N)cc2)nn1C(C)C` [Example 92, 4-Cyano-3-(4-cyanophenyl)-1-isopropyl-N-methyl-1H-pyrazole-5-carboxamide], the pKi is 8.05.

For `CC(C)n1nc(-c2ccc(C#N)cc2)c(C#N)c1C(=O)NC1CC1` [Example 94, 4-Cyano-3-(4-cyanophenyl)-N-cyclopropyl-1-isopropyl-1H-pyrazole-5-carboxamide], the pKi is 7.97.

Take `CC(C)NC(=O)c1c(Cc2ccccc2)c(-c2ccc(C#N)cc2)nn1C(C)C` [Example 95, 4-Benzyl-3-(4-cyanophenyl)-N,1-diisopropyl-1H-pyrazole-5-carboxamide]: the negative-log Ki (pKi) is 6.50.

On to `CC(C)n1nc(-c2ccc(C#N)cc2)c(Cc2ccccc2)c1C(=O)NC1CC1` [Example 96, 4-Benzyl-3-(4-cyanophenyl)-N-cyclopropyl-1-isopropyl-1H-pyrazole-5-carboxamide], for which the pKi was 6.43.

Regarding `CCNC(=O)c1c(Cc2ccccc2)c(-c2ccc(C#N)cc2)nn1C(C)C` [Example 97, 4-Benzyl-3-(4-cyanophenyl)-N-ethyl-1-isopropyl-1H-pyrazole-5-carboxamide], the pKi is 6.40.

On to `CC(C)n1nc(-c2ccc(C#N)cc2)c(C2CC(F)(F)C2)c1C(=O)NC1CC1` [Example 98, 3-(4-Cyanophenyl)-N-cyclopropyl-4-(3,3-difluorocyclobutyl)-1-isopropyl-1H-pyrazole-5-carboxamide], for which the pKi was 6.68.

As for `CNC(=O)c1c(C2CC(F)(F)C2)c(-c2ccc(C#N)cc2)nn1C(C)C` [Example 99, 3-(4-Cyanophenyl)-4-(3,3-difluorocyclobutyl)-1-isopropyl-N-methyl-1H-pyrazole-5-carboxamide], the negative logarithm of the Ki (pKi) is 7.28.

In the case of `CCNC(=O)c1c(C2CC(F)(F)C2)c(-c2ccc(C#N)cc2)nn1C(C)C` [Example 100, 3-(4-Cyanophenyl)-4-(3,3-difluorocyclobutyl)-N-ethyl-1-isopropyl-1H-pyrazole-5-carboxamide], the pKi is 6.82.

For `CCc1c(-c2ccc(C#N)cc2)nn(C(C)CC)c1C(=O)NC[C@H](C)O` (stereo partly drawn) [Example 108, 1-sec-Butyl-3-(4-cyanophenyl)-4-ethyl-N-[(2S)-2-hydroxypropyl]-1H-pyrazole-5-carboxamide], the pKi was 7.04.

In the case of `CCc1c(-c2ccc(C#N)cc2)nn(C(C)C)c1C(=O)NCC1CC1` [Example 110, 3-(4-Cyanophenyl)-N-(cyclopropylmethyl)-4-ethyl-1-isopropyl-1H-pyrazole-5-carboxamide], the pKi was 8.08.

Consider `CCc1c(-c2ccc(C#N)cc2)nn(C(C)C)c1C(=O)NC1CC1` [Example 111, 3-(4-Cyanophenyl)-N-cyclopropyl-4-ethyl-1-isopropyl-1H-pyrazole-5-carboxamide], for which the pKi was 7.64.
